Active and inactive are the calls of the source. No cut-off for these calls is given here.
Experiments:
Isoptericola = assay: Inhibition of biofilm formation of Isoptericola at 0.005 to 10 mg/ml incubated for 16 to 20 hrs by crystal violet staining based analysis; assay type: functional, organism-based
Staphylococcus aureus [1] = assay: Antibacterial activity against Staphylococcus aureus assessed as bacterial growth inhibition at 0.005 to 10 mg/ml incubated for 16 to 20 hrs by crystal violet staining based analysis; assay type: functional, organism-based; settings: dose 0.005-10 mg/ml, time 16-20 hrs
Staphylococcus aureus [2] = assay: Disruption of pre-formed biofilm of Staphylococcus aureus at 518 uM incubated for 16 to 20 hrs by crystal violet staining based analysis relative to control; assay type: functional; settings: time 16-20 hrs
Staphylococcus aureus [3] = assay: Inhibition of biofilm formation of Staphylococcus aureus incubated for 16 to 20 hrs by crystal violet staining based analysis; assay type: functional, organism-based
Staphylococcus aureus [4] = assay: Inhibition of biofilm formation of Staphylococcus aureus at […] incubated for 16 to 20 hrs in presence of >6.25 uM FeCl3 by crystal violet staining based analysis; assay type: functional, organism-based; settings: dose lower 88.0 mg/ml, time 16-20 hrs
Staphylococcus aureus [5] = assay: Inhibition of biofilm formation of methicillin-resistant Staphylococcus aureus N315 at ~1 ug/ml incubated for 24 hrs by crystal violet staining based analysis relative to control; assay type: functional
Vibrio cholerae = assay: Inhibition of biofilm formation of Vibrio cholerae incubated for 4.5 hrs by epifluorescence based assay; assay type: functional, organism-based

## O=C(NCCCC[C@@H]1CN=C(c2cccc(O)c2O)N1)c1cccc(O)c1O
Isoptericola
  IC50: 50.6 µM
Staphylococcus aureus [1]
  inhibition: inactive
Staphylococcus aureus [2]
  Activity: 30%
Staphylococcus aureus [3]
  IC50: 88.5 µM
Staphylococcus aureus [3]; time 16-20 hrs
  inhibition: Dose-Dependent Effect
Staphylococcus aureus [4]
  inhibition: inactive

## CCCCC1CCCCCCc2cc1c(/C=C1\N=C(c3ccc[nH]3)C=C1OC)[nH]2 (stereo not drawn) [STREPTORUBIN B]
Staphylococcus aureus [5]
  inhibition at 1 µg/mL: 70%

## C=C1Oc2cc(OC)cc(C(=O)OC)c2NC1=O
Vibrio cholerae
  IC50: 60.1 µM

Source: ChEMBL document CHEMBL5532709, “Discovery of Biofilm Inhibitors from the Microbiota of Marine Egg Masses” (J Nat Prod, 2024)
